{
  "source": "patent US12256739B2",
  "about": "“Herbicidal mixtures comprising L-glufosinate or its salt and at least one protoporphyrinogen-IX oxidase inhibitor” (BASF SE, priority 2017, dated 2025)",
  "assay_in_all_cases": "Post emergence treatment, pot test, herbicidal activity",
  "assay_type_in_all_cases": "in vivo",
  "key": {"CYPIR (Cyperus iria)": {"system": "CYPIR (Cyperus iria)", "conditions": "scale from 0 to 100", "excerpt": "(§1) Synergism can be described as an interaction where the combined effect of two or more compounds is greater than the sum of the individual effects of each of the compounds. The pres-ence of a synergistic effect in terms of percent control, between two mixing partners (X and Y) can be calculated using the Colby equation (Colby, S. R., 1967, Calculating Synergistic and Antagonistic Responses in Herbicide Combinations, Weeds, 15, 21-22):\n(§2) When the observed combined control effect is greater than the expected (calculated) combined control effect (E), then the combined effect is synergistic.\n(§3) However, the weed control afforded by the compounds, mixtures or compositions is not limited to these species. The analysis of synergism or antagonism between the mixtures or compositions was determined using Colby's equation.\n(§4) The culture containers used were plastic flowerpots containing loamy sand with approximately 3.0% of humus as the substrate. The seeds of the test plants were sown separately for each species and/or resistant biotype. For the pre-emergence treatment, the active ingredients, which had been suspended or emulsified in water, were applied directly after sowing by means of finely distributing nozzles. The containers were irrigated gently to promote germination and growth and subsequently covered with transparent plastic hoods until the plants had rooted. This cover caused uniform germination of the test plants, unless this had been impaired by the active ingredients. For the post-emergence treatment, the test plants were first grown to a height of 3 to 15 cm, depending on the plant habit, and only then treated with the active ingredients which had been suspended or emulsified in water. For this purpose, the test plants were either sown directly and grown in the same containers, or they were first grown separately as seedlings and transplanted into the test containers a few days prior to treatment. Depending on the species, the plants were kept at 10-25° C. or 20-35° C., respectively. The test period extended to 20 days after treatment. During this time, the plants were tended, and their response to the individual treatments was evaluated. The evaluation was carried out by using a scale from 0 to 100. 100 means no emergence of the plants or complete destruction of at least the above-ground parts, and 0 means no damage, or normal course of growth. Data shown are the mean of two replications.\n(§5) • L-Glufosinate: 5% EC formulation • Saflufenacil: 342 g/l SC formulation • Compound II-16: 5% EC formulation (Compound II-16: ethyl[3-[2-chloro-4-fluoro-5-(1-methyl-6-trifluoromethyl-2,4-dioxo-1,2,3,4-tetrahydropyrimidin-3-yl)phenoxy]-2-pyridyloxy]acetate) • Trifludimoxazin: 500 g/l SC formulation • Sulfentrazone: 480 g/l SC formulation"}, "[1]": {"system": "ERICA (Erigeron Canadensis, Conyza canadensis)", "conditions": "scale from 0 to 100", "excerpt": "as §1, §2, §3, §4, §5"}, "[2]": {"system": "ECHCG (Echinochloa crus-galli)", "excerpt": "as §1, §2, §3, §4, §5"}},
  "data": [
    {"smiles": "CCOC(=O)COc1ncccc1Oc1cc(-n2c(=O)cc(C(F)(F)F)n(C)c2=O)c(F)cc1Cl", "note": "[Compound II-16, ethyl[3-[2-chloro-4-fluoro-5-(1-methyl-6-trifluoromethyl-2,4-dioxo-1,2,3,4-tetrahydropyrimidin-3-yl)phenoxy]-2-pyridyloxy]acetate]", "values": [
      {"measurement": "Herbicidal activity against CYPIR, Found", "setting": "CYPIR (Cyperus iria); Compound II-16 alone, 0.25 g ai/ha", "result": 0}
    ]},
    {"smiles": "CP(=O)(O)CC[C@H](N)C(=O)O", "note": "[L-Glufosinate, (2S)-2-amino-4-[hydroxy(methyl)phosphinoyl]butyric acid]", "values": [
      {"measurement": "Herbicidal activity against CYPIR, Found", "setting": "CYPIR (Cyperus iria); L-Glufosinate alone, 200 g ai/ha", "result": 0},
      {"measurement": "Herbicidal activity against ERICA, Found", "setting": "[1]; L-Glufosinate alone, 75 g ai/ha", "result": 90},
      {"measurement": "Herbicidal activity against ECHCG, Found", "setting": "[2]; L-Glufosinate alone, 200 g ai/ha, scale from 0 to 100", "result": 0},
      {"measurement": "Herbicidal activity against ECHCG, Found", "setting": "[2]; L-Glufosinate alone, 400 g ai/ha, scale from 0 to 100, mean of two replications", "result": 65}
    ]},
    {"smiles": "CC(C)N(C)S(=O)(=O)NC(=O)c1cc(-n2c(=O)cc(C(F)(F)F)n(C)c2=O)c(F)cc1Cl", "note": "[Saflufenacil, saflufenacil]", "values": [
      {"measurement": "Herbicidal activity against ECHCG, Found", "setting": "[2]; Saflufenacil alone, 0.5 g ai/ha, scale from 0 to 100", "result": 0}
    ]},
    {"smiles": "Cc1nn(-c2cc(NS(C)(=O)=O)c(Cl)cc2Cl)c(=O)n1C(F)F", "note": "[Sulfentrazone, sulfentrazone]", "values": [
      {"measurement": "Herbicidal activity against ERICA, Found", "setting": "[1]; Sulfentrazone alone, 1.25 g ai/ha", "result": 0},
      {"measurement": "Herbicidal activity against ERICA, Found", "setting": "[1]; Sulfentrazone alone, 2.5 g ai/ha", "result": 0}
    ]},
    {"smiles": "C#CCN1C(=O)C(F)(F)Oc2cc(F)c(-n3c(=O)n(C)c(=S)n(C)c3=O)cc21", "note": "[Trifludimoxazin, trifludimoxazin]", "values": [
      {"measurement": "Herbicidal activity against ECHCG, Found", "setting": "[2]; Trifludimoxazin alone, 0.25 g ai/ha, scale from 0 to 100", "result": 10}
    ]}
  ]
}
